According to ChEMBL document CHEMBL5247617, “4-Arylthiosemicarbazide derivatives - Pharmacokinetics, toxicity and anti-Toxoplasma gondii activity in vivo” (Eur J Med Chem, 2022):
Active and inactive are the calls of the source. The rule behind the calls is not given here.

Experiments:
Toxoplasma gondii [1] = assay: Antiparasitic activity against Toxoplasma gondii RH infected in human Hs27 cells assessed as parasitic growth inhibition incubated for 24 hrs followed by [5,6-3H] uracil addition and measured after 72 hrs by liquid scintillation counter analysis; type: functional, organism-based
[2] = Cmax in BALB/c mouse brain at 25 mg/kg, po measured upto 24 hrs by LC-MS/MS analysis; type: ADME, organism-based; parameters: time < 24 hrs, dose 25 mg/kg, route po; settings: in vivo
Toxoplasma gondii [3] = assay: Antiparasitic activity against Toxoplasma gondii RH infected in BALB/c mouse assessed as prolongation of animal survival at 25 to 50 mg/kg, po administered for 5 days starting from 24 hrs post infection by Kaplan-Meier method; type: functional, organism-based; settings: dose 25-50 mg/kg, time 5.0 day
[4] = Oral bioavailability in BALB/c mouse brain at 25 mg/kg measured upto 24 hrs by LC-MS/MS analysis; type: ADME, organism-based
Toxoplasma gondii [5] = assay: Antiparasitic activity against Toxoplasma gondii RH infected in BALB/c mouse assessed as reduction in number of bradyzoite gene copies in muscles at 25 mg/kg, po administered every 24 hrs for 5 days starting from 24 hrs post infection by real-time qPCR analysis; type: functional; settings: time 5 day
[6] = Toxicity in BALB/c mouse assessed as changes in liver weight at 50 mg/kg, po administered for 5 days and measured after 1 day; type: organism-based; settings: in vivo, 120 h, time 5 day
[7] = Tmax in BALB/c mouse brain at 25 mg/kg, po measured upto 24 hrs by LC-MS/MS analysis; type: ADME, organism-based
[8] = AUC in BALB/c mouse brain at 25 mg/kg, po measured upto 24 hrs by LC-MS/MS analysis; type: ADME, organism-based; parameters: time < 24 hrs, dose 25 mg/kg, route po
[9] = Toxicity in BALB/c mouse assessed as changes in size of hepatocyte nuclei at 50 mg/kg, po administered for 5 days and measured after 14 days by hematoxylin-eosin staining based microscopic analysis; type: organism-based; settings: hepatocytes, 120 h, time 5 day
Toxoplasma gondii [10] = assay: Antiparasitic activity against Toxoplasma gondii RH infected in BALB/c mouse assessed as decrease in number of bradyzoite gene copies in brain at 50 mg/kg, po administered every 24 hrs for 5 days starting from 24 hrs post infection by real-time qPCR analysis; type: functional, organism-based; settings: time 5.0 day
[11] = Tmax in BALB/c mouse brain at 50 mg/kg, po measured upto 24 hrs by LC-MS/MS analysis; type: ADME, organism-based
[12] = Cmax in BALB/c mouse brain at 50 mg/kg, po measured upto 24 hrs by LC-MS/MS analysis; type: ADME, organism-based; parameters: time < 24 hrs, dose 50 mg/kg, route po; settings: in vivo
Toxoplasma gondii [13] = assay: Antiparasitic activity against Toxoplasma gondii RH infected in BALB/c mouse assessed as reduction of daughter tachyzoites in blood at 25 to 50 mg/kg, po administered for 5 days starting from 24 hrs post infection by real-time qPCR analysis; type: functional, organism-based; settings: dose 25-50 mg/kg, time 5.0 day
[14] = Toxicity in BALB/c mouse assessed as changes in creatinine level at 50 mg/kg, po administered for 5 days and measured on day 1 and day 14 by colorimetric assay; type: organism-based; settings: in vivo, 120 h, time 5 day
Toxoplasma gondii [15] = assay: Antiparasitic activity against Toxoplasma gondii DX infected in C3H/HeOuJ mouse assessed as prolongation of survival at 25 to 50 mg/kg, po administered for 5 days starting from 24 hrs post infection by Kaplan-Meier method; type: functional, organism-based; settings: dose 25-50 mg/kg, time 5.0 day
Toxoplasma gondii [16] = assay: Antiparasitic activity against Toxoplasma gondii RH infected in BALB/c mouse assessed as reduction of bradyzoite gene copies in heart at 25 mg/kg, po administered every 24 hrs for 5 days starting from 24 hrs post infection by real-time qPCR analysis; type: functional, organism-based; settings: time 5.0 day
L929 = assay: Cytotoxicity against mouse L929 cells assessed as reduction in cell viability incubated for 24 hrs by MTT assay; type: toxicity, cell-based; settings: l929, 24 h
[17] = Cmax in BALB/c mouse serum at 25 mg/kg, po measured upto 60 mins by LC-MS/MS analysis; type: ADME, organism-based; parameters: dose 25 mg/kg, time < 60 min, route po; settings: in vivo, 1 h
[18] = Elimination half-life in BALB/c mouse serum at 50 mg/kg, po measured upto 60 mins by LC-MS/MS analysis; type: ADME, organism-based; settings: in vivo, 1 h
HS27 = assay: Cytotoxicity against human HS27 cells assessed as reduction in cell viability; type: toxicity, cell-based
[19] = Toxicity in BALB/c mouse assessed as changes in body weight at 1000 mg/kg, po administered once and observed for 10 days; type: organism-based; settings: in vivo, 240 h, time 10 day
[20] = Elimination half-life in BALB/c mouse brain at 50 mg/kg, po measured upto 24 hrs by LC-MS/MS analysis; type: ADME, organism-based; settings: read-out: beta t1/2 (converted)
[21] = Oral bioavailability in BALB/c mouse serum at 25 mg/kg measured upto 60 mins by LC-MS/MS analysis; type: ADME, organism-based
[22] = Toxicity in BALB/c mouse assessed as changes in serum AST level at 50 mg/kg, po administered for 5 days and measured on day 1 and day 14 by ELISA method; type: organism-based; settings: in vivo, 120 h, time 5 day
[23] = Oral bioavailability in BALB/c mouse serum at 50 mg/kg measured upto 60 mins by LC-MS/MS analysis; type: ADME, organism-based
[24] = Toxicity in BALB/c mouse assessed as changes in liver weight at 50 mg/kg, po administered for 5 days and measured after 14 days; type: organism-based; settings: in vivo, 120 h, time 5 day
Toxoplasma gondii [25] = assay: Antiparasitic activity against Toxoplasma gondii RH infected in BALB/c mouse assessed as decrease in IFNgamma level in serum at 25 to 50 mg/kg, po administered for 5 days starting from 24 hrs post infection by ELISA method; type: functional, organism-based; settings: dose 25-50 mg/kg, time 5.0 day
[26] = Elimination half-life in BALB/c mouse brain at 25 mg/kg, po measured upto 24 hrs by LC-MS/MS analysis; type: ADME, organism-based; settings: read-out: beta t1/2 (converted)
[27] = Elimination half-life in BALB/c mouse serum at 25 mg/kg, po measured upto 60 mins by LC-MS/MS analysis; type: ADME, organism-based; settings: in vivo, 1 h
[28] = AUC in BALB/c mouse serum at 25 mg/kg, po measured upto 60 mins by LC-MS/MS analysis; type: ADME, organism-based; parameters: dose 25 mg/kg, time < 60 min, route po; settings: in vivo, 1 h
[29] = Toxicity in BALB/c mouse assessed as microvesicular steatosis of hepatocytes at 50 mg/kg, po administered for 5 days and measured after 1 day by hematoxylin-eosin staining based microscopic analysis; type: organism-based; settings: in vivo, 120 h, time 5 day
Toxoplasma gondii [30] = assay: Antiparasitic activity against Toxoplasma gondii RH infected in BALB/c mouse assessed as survival rate at 50 mg/kg, po administered every 12 hrs for 5 days starting from 24 hrs post infection by Kaplan-Meier method; type: functional; settings: 120 h, time 5 day
[31] = Oral bioavailability in BALB/c mouse brain at 50 mg/kg measured upto 24 hrs by LC-MS/MS analysis; type: ADME, organism-based
[32] = AUC in BALB/c mouse serum at 50 mg/kg, po measured upto 60 mins by LC-MS/MS analysis; type: ADME, organism-based; parameters: time < 60 min, dose 50 mg/kg, route po; settings: in vivo, 1 h
[33] = Toxicity in BALB/c mouse assessed as disseminated necrosis of hepatocytes at 50 mg/kg, po administered for 5 days and measured after 14 days by hematoxylin-eosin staining based microscopic analysis; type: organism-based; settings: in vivo, 120 h, time 5 day
[34] = Tmax in BALB/c mouse serum at 50 mg/kg, po measured upto 60 mins by LC-MS/MS analysis; type: ADME, organism-based; settings: in vivo, 1 h
[35] = Toxicity in BALB/c mouse assessed as disseminated necrosis of hepatocytes at 50 mg/kg, po administered for 5 days and measured after 1 day by hematoxylin-eosin staining based microscopic analysis; type: organism-based; settings: in vivo, 120 h, time 5 day
[36] = Tmax in BALB/c mouse serum at 25 mg/kg, po measured upto 60 mins by LC-MS/MS analysis; type: ADME, organism-based; settings: in vivo, 1 h
[37] = Cmax in BALB/c mouse serum at 50 mg/kg, po measured upto 60 mins by LC-MS/MS analysis; type: ADME, organism-based; parameters: time < 60 min, dose 50 mg/kg, route po; settings: in vivo, 1 h
[38] = AUC in BALB/c mouse brain at 50 mg/kg, po measured upto 24 hrs by LC-MS/MS analysis; type: ADME, organism-based; parameters: dose 50 mg/kg, time < 24 hrs, route po
[39] = Toxicity in BALB/c mouse assessed as increase in serum ALT level at 50 mg/kg, po administered for 5 days and measured after 14 days by ELISA method; type: organism-based; settings: in vivo, 120 h, time 5 day
[40] = Toxicity in BALB/c mouse assessed as changes in body weight at 25 to 50 mg/kg, po administered for 5 days and measured on day 1 and day 14; type: organism-based; settings: in vivo, 120 h, dose 25-50 mg/kg, time 5 day

Cc1nc[nH]c1C(=O)NNC(=S)Nc1ccc([N+](=O)[O-])cc1
IC50 (Toxoplasma gondii [1]): 67.5 µM | Cmax [2]: 7.74 ng/mg | Activity (Toxoplasma gondii [3]): Active | bioavailability [4]: 0.46% | Activity (Toxoplasma gondii [5]): 20 | Activity [6]: Non-Toxic | Tmax [7]: 120 min | AUC at 24 h [8]: 24.9 ng·h/mL | Activity [9]: Toxic | Activity (Toxoplasma gondii [10]): Active | Tmax [11]: 30 min | Cmax [12]: 32.27 ng/mg | Activity (Toxoplasma gondii [13]): Active | Activity [14]: Non-Toxic | Activity (Toxoplasma gondii [15]): Active | Activity (Toxoplasma gondii [16]): Active | CC30 (L929): 682.98 µM | Cmax [17]: 6400 ng/mL | beta t1/2 [18]: 24 min | CC30 (HS27): 697.67 µM | Activity [19]: Non-Toxic | half-life [20]: 54.6 min | bioavailability [21]: 10.7% | Activity [22]: Non-Toxic | bioavailability [23]: 4.06% | Activity [24]: Non-Toxic | Activity (Toxoplasma gondii [25]): Active | half-life [26]: 175 min | beta t1/2 [27]: 52.8 min | AUC [28]: 53700 ng·h/mL | Activity [29]: Toxic | survival at 50 mg/kg (Toxoplasma gondii [30]): 20% | bioavailability [31]: 1.17% | AUC [32]: 40640 ng·h/mL | Activity [33]: Toxic | Tmax [34]: 15 min | Activity [35]: Toxic | Tmax [36]: 30 min | Cmax [37]: 11080 ng/mL | AUC at 24 h [38]: 47.5 ng·h/mL | Activity [39]: Non-Toxic | Activity [40]: Non-Toxic
